Data as given in ChEMBL document CHEMBL1201862, “PubChem BioAssay data set” (2004).
Calls of active or inactive are those of the source.

Key:
[1] = target: G-protein coupled receptor 55 (Homo sapiens, UniProt Q9Y2T6); experiment: inhibition of LPI-stimulated GPR55 beta-arrestin translocation – imaging, U2OS, beta-arrestin-GFP, LPI agonist, primary screen (AID 2013); assay type: functional;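 further: antagonist potency measured as reduced agonist-driven arrestin aggregation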
[2] = target: DNA damage-inducible transcript 3 protein (Mus musculus, UniProt P35639); assay type: functional, Cricetulus griseus
cells [3] = assay type: functional, cell-based
cells [4] = assay type: functional, cell-based; remark: listed apart in the source
[5] = target: DNA dC->dU-editing enzyme APOBEC-3A (Homo sapiens, UniProt P31941); experiment: Dose Response confirmation of small molecule APOBEC3A DNA Deaminase Inhibitors via a fluorescence-based single-stranded DNA deaminase assay. [Related pubchem assays (depositor defined):AID493011, AID493024]; assay type: functional
[6] = target: DNA dC->dU-editing enzyme APOBEC-3G (Homo sapiens, UniProt Q9HC16); assay type: functional;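 further: Dose-response counterscreen measuring inhibition of APOBEC3G DNA deaminase activity, run while confirming APOBEC3A inhibitors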
Ion channel NompC = Ion channel NompC (Danio rerio, UniProt Q7T1G6); experiment: Fluorescence counterscreen assay for TRPML3 agonists: dose response cell-based high-throughput screening assay to identify agonists of the transient receptor potential channel N1 (TRPN1). [Related pubchem assays: 1526, 1424, 1448 ]; assay type: functional
Mucolipin-3 = target: T1, Mucolipin-3 (Homo sapiens, UniProt Q8TDD5); experiment: Dose response cell-based high-throughput screening assay for agonists of the transient receptor potential channel ML3 (TRPML3). [Related pubchem assays: 1526, 1424, 1448 ]; assay type: functional
T1 sequence (Q8TDD5 whole entry): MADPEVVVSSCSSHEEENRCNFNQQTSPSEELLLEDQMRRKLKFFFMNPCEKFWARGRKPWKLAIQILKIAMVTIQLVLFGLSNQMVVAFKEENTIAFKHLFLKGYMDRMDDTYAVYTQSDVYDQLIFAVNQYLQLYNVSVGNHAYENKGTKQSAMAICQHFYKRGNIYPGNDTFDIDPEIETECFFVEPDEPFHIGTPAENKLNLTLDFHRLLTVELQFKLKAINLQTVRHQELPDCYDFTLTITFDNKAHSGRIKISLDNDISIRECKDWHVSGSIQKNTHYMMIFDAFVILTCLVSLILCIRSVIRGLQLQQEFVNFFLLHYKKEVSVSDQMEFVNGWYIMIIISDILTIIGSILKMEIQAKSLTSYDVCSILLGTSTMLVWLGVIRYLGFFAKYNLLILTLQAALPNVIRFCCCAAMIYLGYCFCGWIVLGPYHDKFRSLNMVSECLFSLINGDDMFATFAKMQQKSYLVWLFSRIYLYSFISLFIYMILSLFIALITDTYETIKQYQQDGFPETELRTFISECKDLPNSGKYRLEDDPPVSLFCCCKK

[7] = fluconazole-exposed Candida albicans growth modulators – fluorescence, retest, confirmation (AID 2467); assay type: functional, cell-based
HEK293 [8] = experiment: cells; assay type: functional, cell-based; conditions: Homo sapiens
[9] = HEK-293T viability loss after treatment – luminescence, T-cell screen hits, cytotoxicity control for TCR NF-kB inhibitor project, dose response (AID 489026); assay type: functional, cell-based;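 further: cells exposed to compound about 14 hours before the viability readout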
[10] = NIH-3T3 fibroblast cytotoxicity, dose response, cytotoxicity control, cell-based, fluorescence, Alamar Blue, secondary assay (AID 2327); assay type: functional;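 further: NIH-3T3 mouse fibroblasts cultured with fluconazole at 8 µg/mL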
HEK293 [11] = experiment: inhibition of NOD1-driven NF-kB reporter – cell-based, luminescence, uHTS, primary screen (AID 1578); assay type: functional; conditions: Homo sapiens
[12] = NIH3T3 cell viability loss – ATP luminescence, mouse fibroblasts, counter-screen, dose response (AID 2010); assay type: functional, cell-based;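 further: cells exposed to compound for about 90 hours before reading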
[13] = Trypanosoma cruzi growth suppression in host cells – NIH3T3 host cells, beta-gal luminescence, confirmation (AID 2044); assay type: functional, cell-based;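 further: intracellular parasites grown in NIH/3T3 mouse fibroblasts as host cells; luminescent beta-galactosidase reporter signal from transgenic T. cruzi replicating inside host cells; inhibitors lower the luminescence signal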
HEK293 [14] = experiment: NOD2 signaling inhibitors in MDP-stimulated cells, cell-based, uHTS, luminescence (AID 2001); assay type: functional; conditions: Homo sapiens
HEK293 [15] = experiment: cells; assay type: functional, cell-based; conditions: Homo sapiens; remark: listed apart in the source
[16] = target: FAD-linked sulfhydryl oxidase ALR (Homo sapiens, UniProt P55789); experiment: ALR-catalysed DTT oxidation blockers – biochemical, H2O2 detection, luminescence, cherry-pick, dose response (AID 493248)
[17] = viability of uninfected HEp-2 cells – cell-based, HTS, cytotoxicity control for RSV inhibitor project, dose response (AID 2410); assay type: functional; conditions: human respiratory syncytial virus
Vero [18] = experiment: cells; assay type: functional, cell-based; conditions: Chlorocebus sabaeus
cells [19] = experiment: cells
Vero [20] = experiment: cells; assay type: functional; conditions: Chlorocebus sabaeus
HT-1080 = experiment: HT1080 cell viability loss – fluorescence readout (AID 620); assay type: functional, cell-based; conditions: Homo sapiens
[21] = target: Luciferin 4-monooxygenase (Photinus pyralis, UniProt P08659); experiment: Counter Screen for Luciferase-based Assay Positives. [Related pubchem assays: 620, 618, 411 ]
[22] = target: Potassium voltage-gated channel subfamily KQT member 2 (Rattus norvegicus, UniProt O88943); experiment: potentiation of rat KCNQ2 current – cell-based, retigabine-insensitive compounds, dose response (AID 2654); assay type: functional
[23] = non-specific 3'UTR reporter inhibition in Clone20-Shn3RL – cell-based, Renilla luciferase, cherry-picked, counter-screen for Shn3 inhibitor project, dose response (AID 624133); assay type: functional
[24] = reduction of Shn3 3'UTR-driven luciferase in osteoblasts – cell-based, Clone20 osteoblasts, firefly luciferase, cherry-picked, dose response (AID 624132); assay type: functional;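 further: firefly luciferase luminescence from reporter carrying the Shn3 3'UTR in osteoblasts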
[25] = loss of viability in HepG2 cells – cell-based, CellTiter-Glo, cherry-picked, cytotoxicity control for Shn3 inhibitor project, dose response (AID 624134); assay type: functional
[26] = target: T2, RNA-binding protein pos-1 (Caenorhabditis elegans, UniProt G5EF15); experiment: disruptors of C. elegans POS-1 RNA interaction – biochemical, fluorescence polarization, dose response (AID 1964);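 further: purified POS-1 fused to maltose binding protein made in E. coli; potency of compounds blocking POS-1 binding to fluorescent RNA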
T2 sequence (G5EF15 whole entry): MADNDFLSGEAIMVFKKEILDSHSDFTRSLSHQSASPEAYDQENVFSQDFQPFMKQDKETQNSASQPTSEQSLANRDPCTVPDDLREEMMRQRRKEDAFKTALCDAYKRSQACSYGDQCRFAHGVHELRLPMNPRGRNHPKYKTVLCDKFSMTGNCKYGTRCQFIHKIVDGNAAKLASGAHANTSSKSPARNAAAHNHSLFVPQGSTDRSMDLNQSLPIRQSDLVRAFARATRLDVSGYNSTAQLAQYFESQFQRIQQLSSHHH

[27] = target: T3, Zinc finger protein mex-5 (Caenorhabditis elegans, UniProt Q9XUB2); experiment: potency of MEX-5 RNA-binding blockers – biochemical, C. elegans, fluorescence polarization, dose response (AID 1960)
T3 sequence (Q9XUB2 whole entry): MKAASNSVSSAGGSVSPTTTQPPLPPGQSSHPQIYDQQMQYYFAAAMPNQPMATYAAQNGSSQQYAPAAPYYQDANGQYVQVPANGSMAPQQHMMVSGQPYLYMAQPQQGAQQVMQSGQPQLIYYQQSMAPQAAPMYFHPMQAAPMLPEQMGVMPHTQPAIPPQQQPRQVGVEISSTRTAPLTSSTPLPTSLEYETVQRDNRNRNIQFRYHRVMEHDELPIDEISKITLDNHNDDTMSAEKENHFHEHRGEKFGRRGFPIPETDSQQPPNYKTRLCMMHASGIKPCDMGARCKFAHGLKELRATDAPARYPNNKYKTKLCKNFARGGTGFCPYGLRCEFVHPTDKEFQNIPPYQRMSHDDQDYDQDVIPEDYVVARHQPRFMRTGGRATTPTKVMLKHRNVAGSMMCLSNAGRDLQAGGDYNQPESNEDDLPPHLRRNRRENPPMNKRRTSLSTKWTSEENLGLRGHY

[28] = target: T4, Histone-lysine N-methyltransferase NSD2 (Homo sapiens, UniProt O96028); assay type: biochemical
T4 sequence (O96028 whole entry): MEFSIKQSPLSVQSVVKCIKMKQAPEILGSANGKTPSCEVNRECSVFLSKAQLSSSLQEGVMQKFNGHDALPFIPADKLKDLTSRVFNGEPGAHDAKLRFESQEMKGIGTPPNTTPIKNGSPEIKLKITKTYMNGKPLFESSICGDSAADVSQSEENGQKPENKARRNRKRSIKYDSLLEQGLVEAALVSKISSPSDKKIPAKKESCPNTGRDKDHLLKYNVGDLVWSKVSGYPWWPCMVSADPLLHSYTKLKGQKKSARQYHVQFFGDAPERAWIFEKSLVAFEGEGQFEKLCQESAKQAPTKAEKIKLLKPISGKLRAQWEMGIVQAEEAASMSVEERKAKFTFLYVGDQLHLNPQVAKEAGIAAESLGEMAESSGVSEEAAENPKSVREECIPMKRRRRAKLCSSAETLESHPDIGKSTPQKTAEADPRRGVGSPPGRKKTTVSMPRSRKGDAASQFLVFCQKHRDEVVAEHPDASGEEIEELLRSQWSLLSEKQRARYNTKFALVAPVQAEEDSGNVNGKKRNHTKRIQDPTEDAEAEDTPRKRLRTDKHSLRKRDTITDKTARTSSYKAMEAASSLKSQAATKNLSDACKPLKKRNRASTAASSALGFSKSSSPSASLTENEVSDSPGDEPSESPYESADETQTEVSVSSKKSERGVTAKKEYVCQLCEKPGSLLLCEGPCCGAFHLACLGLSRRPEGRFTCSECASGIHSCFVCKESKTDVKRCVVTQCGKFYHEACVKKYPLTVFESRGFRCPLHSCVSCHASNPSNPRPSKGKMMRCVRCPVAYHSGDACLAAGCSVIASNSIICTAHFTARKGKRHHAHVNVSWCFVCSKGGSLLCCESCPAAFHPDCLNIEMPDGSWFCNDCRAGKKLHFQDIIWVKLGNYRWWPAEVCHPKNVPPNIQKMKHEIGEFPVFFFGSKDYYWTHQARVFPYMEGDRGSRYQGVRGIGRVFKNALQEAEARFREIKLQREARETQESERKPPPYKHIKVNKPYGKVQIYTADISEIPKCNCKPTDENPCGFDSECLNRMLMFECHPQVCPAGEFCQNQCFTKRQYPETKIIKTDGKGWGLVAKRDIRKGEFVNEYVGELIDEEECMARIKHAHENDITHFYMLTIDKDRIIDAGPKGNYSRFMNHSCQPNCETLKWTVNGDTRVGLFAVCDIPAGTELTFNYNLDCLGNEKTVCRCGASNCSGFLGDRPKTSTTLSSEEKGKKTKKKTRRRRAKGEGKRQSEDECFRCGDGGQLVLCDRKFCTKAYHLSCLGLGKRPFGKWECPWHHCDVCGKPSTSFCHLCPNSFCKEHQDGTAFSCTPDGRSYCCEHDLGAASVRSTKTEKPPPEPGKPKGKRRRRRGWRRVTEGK

Chain of Potassium voltage-gated channel subfamily KQT member 2 (O88943 whole entry): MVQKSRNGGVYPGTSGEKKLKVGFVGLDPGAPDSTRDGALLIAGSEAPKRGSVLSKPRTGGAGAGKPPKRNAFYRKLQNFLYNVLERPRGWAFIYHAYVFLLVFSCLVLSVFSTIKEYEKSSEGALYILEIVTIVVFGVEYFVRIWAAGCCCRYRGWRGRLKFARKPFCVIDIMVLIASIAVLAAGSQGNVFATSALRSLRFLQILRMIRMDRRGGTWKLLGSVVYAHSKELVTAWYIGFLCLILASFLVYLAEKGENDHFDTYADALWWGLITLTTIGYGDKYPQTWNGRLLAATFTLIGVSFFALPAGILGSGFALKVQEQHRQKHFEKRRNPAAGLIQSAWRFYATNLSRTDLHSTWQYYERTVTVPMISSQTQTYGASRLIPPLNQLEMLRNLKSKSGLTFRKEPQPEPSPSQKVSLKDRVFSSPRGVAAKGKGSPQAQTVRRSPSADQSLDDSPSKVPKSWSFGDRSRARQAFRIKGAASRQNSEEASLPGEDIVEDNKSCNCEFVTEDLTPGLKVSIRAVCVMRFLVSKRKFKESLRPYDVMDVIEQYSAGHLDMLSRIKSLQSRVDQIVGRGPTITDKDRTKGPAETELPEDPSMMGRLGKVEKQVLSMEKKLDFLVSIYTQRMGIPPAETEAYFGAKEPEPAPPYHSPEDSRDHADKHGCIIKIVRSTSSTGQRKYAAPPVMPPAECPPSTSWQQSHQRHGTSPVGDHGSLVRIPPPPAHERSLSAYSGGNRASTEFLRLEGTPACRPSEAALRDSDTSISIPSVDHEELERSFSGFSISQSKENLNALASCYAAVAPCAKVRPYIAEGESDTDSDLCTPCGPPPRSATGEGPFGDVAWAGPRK
Chain of DNA dC->dU-editing enzyme APOBEC-3G (Q9HC16 whole entry): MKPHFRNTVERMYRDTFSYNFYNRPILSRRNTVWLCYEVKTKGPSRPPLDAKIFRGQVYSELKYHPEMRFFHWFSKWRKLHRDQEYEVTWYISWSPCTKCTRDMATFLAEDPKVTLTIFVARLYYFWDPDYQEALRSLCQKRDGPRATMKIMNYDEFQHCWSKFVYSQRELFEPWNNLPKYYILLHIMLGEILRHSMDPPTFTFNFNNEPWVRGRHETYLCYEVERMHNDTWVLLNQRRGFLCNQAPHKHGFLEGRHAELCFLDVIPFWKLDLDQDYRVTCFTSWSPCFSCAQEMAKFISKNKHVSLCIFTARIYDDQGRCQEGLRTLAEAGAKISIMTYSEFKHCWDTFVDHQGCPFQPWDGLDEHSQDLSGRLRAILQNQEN
Chain of DNA dC->dU-editing enzyme APOBEC-3A (P31941 whole entry): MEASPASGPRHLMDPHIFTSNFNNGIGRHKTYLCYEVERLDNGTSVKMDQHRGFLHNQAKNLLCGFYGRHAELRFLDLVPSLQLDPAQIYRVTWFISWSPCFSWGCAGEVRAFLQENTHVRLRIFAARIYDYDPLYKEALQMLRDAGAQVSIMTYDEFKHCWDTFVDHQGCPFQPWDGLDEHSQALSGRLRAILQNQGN
Chain of G-protein coupled receptor 55 (Q9Y2T6 whole entry): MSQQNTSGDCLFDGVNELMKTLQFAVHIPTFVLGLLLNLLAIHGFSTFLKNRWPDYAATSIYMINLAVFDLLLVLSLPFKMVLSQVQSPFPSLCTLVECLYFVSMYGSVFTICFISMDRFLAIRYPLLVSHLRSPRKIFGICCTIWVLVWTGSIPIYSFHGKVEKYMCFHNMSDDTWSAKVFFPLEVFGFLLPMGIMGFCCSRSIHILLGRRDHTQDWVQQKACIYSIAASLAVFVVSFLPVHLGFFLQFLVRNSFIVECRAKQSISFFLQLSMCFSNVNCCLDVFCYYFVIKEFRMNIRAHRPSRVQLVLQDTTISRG
Chain of DNA damage-inducible transcript 3 protein (P35639 whole entry): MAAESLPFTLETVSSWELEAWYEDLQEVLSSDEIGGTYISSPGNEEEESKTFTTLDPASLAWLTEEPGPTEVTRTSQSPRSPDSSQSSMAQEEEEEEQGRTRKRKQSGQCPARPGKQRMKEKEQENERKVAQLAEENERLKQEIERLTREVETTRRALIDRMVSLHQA
Chain of Ion channel NompC (Q7T1G6 whole entry): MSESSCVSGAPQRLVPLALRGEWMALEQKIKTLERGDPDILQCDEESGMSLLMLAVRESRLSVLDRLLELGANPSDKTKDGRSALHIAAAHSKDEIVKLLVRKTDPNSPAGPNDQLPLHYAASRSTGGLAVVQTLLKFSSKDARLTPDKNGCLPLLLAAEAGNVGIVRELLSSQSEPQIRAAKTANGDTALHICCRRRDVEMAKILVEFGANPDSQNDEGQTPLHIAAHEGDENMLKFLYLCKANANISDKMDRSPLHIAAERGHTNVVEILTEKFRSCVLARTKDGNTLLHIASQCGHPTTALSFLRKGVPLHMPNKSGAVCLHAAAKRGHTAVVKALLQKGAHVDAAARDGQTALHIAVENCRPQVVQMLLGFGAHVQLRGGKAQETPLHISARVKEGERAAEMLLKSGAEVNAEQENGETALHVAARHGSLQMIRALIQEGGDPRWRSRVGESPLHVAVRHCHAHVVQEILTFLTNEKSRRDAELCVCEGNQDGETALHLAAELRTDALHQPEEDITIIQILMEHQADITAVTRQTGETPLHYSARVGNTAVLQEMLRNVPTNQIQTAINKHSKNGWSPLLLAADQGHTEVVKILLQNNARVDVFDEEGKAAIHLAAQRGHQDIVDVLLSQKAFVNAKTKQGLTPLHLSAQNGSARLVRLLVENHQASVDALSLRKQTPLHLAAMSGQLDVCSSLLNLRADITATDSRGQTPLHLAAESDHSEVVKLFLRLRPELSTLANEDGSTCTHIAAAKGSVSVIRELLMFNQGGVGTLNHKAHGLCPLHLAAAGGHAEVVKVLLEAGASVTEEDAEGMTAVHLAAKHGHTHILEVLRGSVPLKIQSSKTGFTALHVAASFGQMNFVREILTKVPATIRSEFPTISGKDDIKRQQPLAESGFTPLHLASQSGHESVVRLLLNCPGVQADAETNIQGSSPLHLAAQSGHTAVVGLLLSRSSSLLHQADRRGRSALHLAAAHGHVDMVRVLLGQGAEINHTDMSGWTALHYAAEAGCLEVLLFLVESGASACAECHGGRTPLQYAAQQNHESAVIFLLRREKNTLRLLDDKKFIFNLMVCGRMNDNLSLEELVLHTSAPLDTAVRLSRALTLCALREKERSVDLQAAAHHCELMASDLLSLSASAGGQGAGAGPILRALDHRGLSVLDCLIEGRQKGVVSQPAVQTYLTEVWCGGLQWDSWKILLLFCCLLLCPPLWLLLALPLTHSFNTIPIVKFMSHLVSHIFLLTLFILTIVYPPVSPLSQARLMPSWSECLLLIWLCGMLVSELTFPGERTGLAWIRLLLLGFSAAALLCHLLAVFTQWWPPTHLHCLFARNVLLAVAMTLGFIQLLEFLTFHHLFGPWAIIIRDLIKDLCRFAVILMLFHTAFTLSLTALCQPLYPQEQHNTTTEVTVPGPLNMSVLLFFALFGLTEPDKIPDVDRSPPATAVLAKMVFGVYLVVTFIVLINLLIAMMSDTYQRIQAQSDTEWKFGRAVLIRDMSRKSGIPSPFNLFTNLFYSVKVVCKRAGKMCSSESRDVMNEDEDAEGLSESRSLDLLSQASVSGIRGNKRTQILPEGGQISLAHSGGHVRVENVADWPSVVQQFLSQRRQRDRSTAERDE
Chain of FAD-linked sulfhydryl oxidase ALR (P55789 whole entry): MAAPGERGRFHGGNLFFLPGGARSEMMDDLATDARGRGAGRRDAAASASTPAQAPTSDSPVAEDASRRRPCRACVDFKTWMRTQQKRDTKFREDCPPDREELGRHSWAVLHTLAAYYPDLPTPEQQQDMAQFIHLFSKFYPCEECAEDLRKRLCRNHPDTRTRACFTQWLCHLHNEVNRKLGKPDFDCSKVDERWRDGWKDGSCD
Chain of Luciferin 4-monooxygenase (P08659 whole entry): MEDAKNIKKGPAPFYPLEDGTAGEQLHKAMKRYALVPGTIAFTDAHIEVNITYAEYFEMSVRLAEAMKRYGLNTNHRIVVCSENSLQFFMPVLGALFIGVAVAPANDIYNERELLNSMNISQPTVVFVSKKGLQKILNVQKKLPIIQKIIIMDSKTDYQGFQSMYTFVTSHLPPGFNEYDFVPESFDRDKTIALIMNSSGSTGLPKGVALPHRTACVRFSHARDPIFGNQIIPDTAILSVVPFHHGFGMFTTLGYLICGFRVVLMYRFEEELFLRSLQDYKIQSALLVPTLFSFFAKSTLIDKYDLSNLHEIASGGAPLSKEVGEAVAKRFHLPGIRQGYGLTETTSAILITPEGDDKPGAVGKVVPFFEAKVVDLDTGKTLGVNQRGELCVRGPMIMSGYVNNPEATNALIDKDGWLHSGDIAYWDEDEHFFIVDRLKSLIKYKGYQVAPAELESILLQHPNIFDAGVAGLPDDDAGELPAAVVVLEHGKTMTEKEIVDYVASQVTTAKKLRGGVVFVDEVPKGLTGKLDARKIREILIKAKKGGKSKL

SMILES: Cc1cc(N)n2nc(-c3ccccc3)c(-c3ccccc3)c2n1
- IC50 [1]: 2.35 µM (active)

SMILES: CCC(Cc1ccccc1)n1c(=S)[nH]c2ccccc2c1=O (stereo unspecified)
- Absolute IC50 (CHOP) [2]: 10 µM
- EC50 (cells [3]): > 350 µM (not active)
- EC50 (cells [4]): > 350 µM (not active)

SMILES: O=C(CSc1nnnn1-c1ccccc1)Nc1ccc(N2CCOCC2)c(Cl)c1
- IC50 [5]: 6.63 µM (active)
- IC50 [6]: 9.68 µM (active)

SMILES: CCCSc1ccc(-c2nn(-c3ccccc3)cc2/C=C(/C#N)C(=O)N2CCOCC2)cc1
- IC50 [1]: < 0.5 µM (active)

SMILES: Cc1nc(NC(=O)c2csc3ccccc23)sc1C
- EC50 (Ion channel NompC): > 29.9 µM (not active)
- EC50 (Mucolipin-3): 8.95 µM (active)

SMILES: CC1CCN(S(=O)(=O)c2ccc(Br)s2)CC1
- EC50 (Ion channel NompC): > 29.9 µM (not active)
- EC50 (Mucolipin-3): > 29.9 µM (not active)

SMILES: Cc1ccc(C=Cc2ccc(N(C)C)cc2)[n+](C)c1
- EC50 [7]: 3.83 µM (active)
- IC50 [5]: 3.16 µM (active)
- IC50 (HEK293 [8]): > 20 µM (inactive)
- IC50 [9]: > 80 µM (inactive)
- EC50 [10]: > 160 µM (inconclusive)
- EC50 (HEK293 [11]): 4.84 µM (active)
- IC50 [6]: 4.34 µM (active)
- EC50 [12]: 16.1 µM (active)
- EC50 [13]: 0.232 µM (active)
- IC50 (HEK293 [14]): 16 µM (inactive)
- IC50 (HEK293 [15]): 10.8 µM (active)
- AC50 [16]: 1.24 µM (active)

SMILES: Cc1cc(NC(=O)COC(=O)c2ccccc2S(=O)(=O)N(C)c2ccccc2)no1
- CC50 [17]: 34.1 µM (active)
- IC50 (Vero [18]): > 25 µM (active)
- IC50 (cells [19]): 9.76 µM (active)
- CC50 (Vero [20]): > 25 µM (active)

SMILES: Cc1ccc(-c2nc3cc(NC(=O)C(C)C)ccc3o2)cc1
- EC50 (HT-1080): > 50 µM (not active)
- EC50 [21]: 0.23 µM (active)

SMILES: Cc1cncc(NC(=O)Nc2cccc(F)c2)c1
- EC50 [22]: 12.4 µM (active)

SMILES: COc1ccccc1-c1cc(C(F)(F)F)nc(S(=O)(=O)CCCC(=O)Nc2cc(C)on2)n1
- AC50 [23]: 16 µM (active)
- AC50 [24]: 6.57 µM (active)
- AC50 [25]: 28 µM (active)
- Absolute IC50 (CHOP) [2]: 10 µM

SMILES: Cc1ccc(CN2C(=O)N/C(=C\c3cccn3-c3cccc(C(=O)O)c3)C2=O)cc1
- IC50 [5]: 10.3 µM (active)
- EC50 [26]: > 300 µM (not active)
- EC50 [27]: > 300 µM (not active)
- AC50 [28]: 12.8 µM (active)
- IC50 [6]: 25.7 µM (active)

SMILES: O=C(Nc1cccnc1)Nc1ccc2c(c1)OCO2
- EC50 [22]: 152 µM (active)

SMILES: Cc1cc(NC(=O)Nc2cccc(F)c2)cnc1Br
- EC50 [22]: 6.61 µM (active)
